Test [1] has as its target Endothelial PAS domain-containing protein 1 (Homo sapiens) (UniProt Q99814). Briefly: potency against HIF reporters across cell lines – luminescence, panel, selectivity assay for HIF-2a inhibitor project, dose response (AID 651581). The following applies: human cell HIF reporter.
For test [2], the target named is Hypoxia-inducible factor 1-alpha (Homo sapiens) (UniProt Q16665). The description is as above. The following applies: human cell HIF reporter, HIF-1a.

Activity calls are given as the source filed them. No rule for the calls is given here. Bounds are passed on as bounds.

Sequence of Hypoxia-inducible factor 1-alpha (Homo sapiens) (Q16665 whole entry, looked up): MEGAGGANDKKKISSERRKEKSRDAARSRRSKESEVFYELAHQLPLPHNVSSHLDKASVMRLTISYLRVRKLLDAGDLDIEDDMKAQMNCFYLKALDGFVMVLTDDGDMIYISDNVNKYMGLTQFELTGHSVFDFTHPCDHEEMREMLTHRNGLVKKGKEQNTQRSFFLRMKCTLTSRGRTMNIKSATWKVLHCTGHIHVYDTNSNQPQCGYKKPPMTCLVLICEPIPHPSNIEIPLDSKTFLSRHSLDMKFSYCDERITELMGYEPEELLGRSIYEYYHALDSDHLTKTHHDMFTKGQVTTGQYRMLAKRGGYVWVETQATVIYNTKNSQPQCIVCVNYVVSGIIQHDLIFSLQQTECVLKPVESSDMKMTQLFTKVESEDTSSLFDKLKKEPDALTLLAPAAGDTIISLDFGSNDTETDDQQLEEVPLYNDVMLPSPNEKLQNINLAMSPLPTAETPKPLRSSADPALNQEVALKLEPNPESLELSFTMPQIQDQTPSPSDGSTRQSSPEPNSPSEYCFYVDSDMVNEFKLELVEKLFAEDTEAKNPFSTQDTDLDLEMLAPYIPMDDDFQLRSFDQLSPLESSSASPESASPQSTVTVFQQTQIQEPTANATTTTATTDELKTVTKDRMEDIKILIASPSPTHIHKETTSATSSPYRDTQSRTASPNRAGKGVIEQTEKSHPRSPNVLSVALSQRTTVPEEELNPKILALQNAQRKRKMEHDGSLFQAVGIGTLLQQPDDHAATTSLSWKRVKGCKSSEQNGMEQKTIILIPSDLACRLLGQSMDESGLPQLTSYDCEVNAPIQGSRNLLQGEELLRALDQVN

For orientation: IC50 means the concentration needed to halve the response being measured. For the compound `O=C(O)c1cccc(CSc2nnc(-c3ccc(Cl)cc3)o2)c1`, the IC50 is 2.81 µM in test [1] (HIF-2a PANC, mean of runs); 3.03 µM in test [1] (HIF-2a PANC, run 1); 2.6 µM in test [1] (HIF-2a PANC, run 2); 1.97 µM in test [1] (HIF-2a, mean of runs); 1.87 µM in test [1] (HIF-2a, run 1); 2.07 µM in test [1] (HIF-2a, run 2). In addition, the IC50 in test [2] (run 1) and in test [2] (run 2) was over 99 µM throughout.

For `Cc1ccc(NC(=O)c2cc(N3C(=O)C=CC3=O)ccc2N2CCOCC2)cc1Cl`, the IC50 in test [1] (HIF-2a PANC, run 1) is 76.3 µM; in test [1] (HIF-2a PANC, run 2), over 99 µM; in test [1] (HIF-2a, mean of runs) it was 5.36 µM; in test [1] (HIF-2a, run 1), 5.12 µM; in test [1] (HIF-2a, run 2) it was 5.61 µM; in test [2] (mean of runs) it was 49.8 µM. Moreover, the IC50 came out at 60.4 µM in test [2] (run 1) and 39.3 µM in test [2] (run 2).

On to `Cc1cc(SC#N)cc(C)c1NC(=O)CCl`, for which the half-maximal inhibitory concentration (IC50) is over 99 µM in test [1] (HIF-2a PANC, run 1); 93.4 µM in test [1] (HIF-2a PANC, run 2); 12.6 µM in test [1] (HIF-2a, run 1); 7.78 µM in test [1] (HIF-2a, run 2); 20.2 µM in test [2] (run 1); 28.5 µM in test [2] (run 2). Moreover, the IC50 result in test [1] (HIF-2a, mean of runs) was “inactive”; in test [2] (mean of runs) it was “inactive”.

`O=C(O)c1cc(N/N=C/c2ccc3c(c2)OCCO3)ccc1Cl`: the IC50 in test [1] (HIF-2a PANC, mean of runs) was > 99 µM (inactive); in test [1] (HIF-2a PANC, run 1), over 99 µM; in test [1] (HIF-2a PANC, run 2) it was over 99 µM; in test [1] (HIF-2a, run 1) it was under 30 µM; in test [1] (HIF-2a, run 2) it was 5.03 µM; in test [2] (run 1), 45.8 µM. The IC50 in test [2] (run 2) is over 99 µM.

Take `COc1ccccc1C(C[N+](=O)[O-])c1c(N)n(C)c(=O)n(C)c1=O` (stereo not given): the IC50 in test [1] (HIF-2a PANC, run 1) is over 99 µM; in test [1] (HIF-2a PANC, run 2) it was 51.9 µM; in test [1] (HIF-2a, mean of runs) it was 9.86 µM; in test [1] (HIF-2a, run 1), 10.2 µM; in test [1] (HIF-2a, run 2), 9.56 µM; in test [2] (run 1), 20.9 µM. This compound also yielded an IC50 in test [2] (run 2) of 16.9 µM. Besides, in test [2] (mean of runs), the IC50 result is “inactive”.

In the case of `CCOc1ccc2nc(SCc3ccc(CC(=O)O)cc3)c(C#N)cc2c1`, the IC50 in test [1] (HIF-2a PANC, mean of runs) is 7.1 µM; in test [1] (HIF-2a PANC, run 1), 10.9 µM; in test [1] (HIF-2a PANC, run 2) it was 3.27 µM; in test [1] (HIF-2a, mean of runs), 6.7 µM; in test [1] (HIF-2a, run 1), 5.75 µM; in test [1] (HIF-2a, run 2), 7.65 µM. For the same compound, the IC50 was 24.6 µM in test [2] (mean of runs), 35.4 µM in test [2] (run 1) and 13.8 µM in test [2] (run 2).

For `Nc1ccc(-c2ncc(-c3ccccc3)o2)cc1`, the IC50 in test [1] (HIF-2a PANC, mean of runs) was 0.247 µM; in test [1] (HIF-2a PANC, run 1), 0.202 µM; in test [1] (HIF-2a PANC, run 2) it was 0.292 µM; in test [1] (HIF-2a, mean of runs), under 0.3 µM; in test [1] (HIF-2a, run 1), under 0.3 µM; in test [1] (HIF-2a, run 2), under 1 µM. For the same compound, the figures for the IC50 in test [2] (mean of runs), in test [2] (run 1) and in test [2] (run 2) were 26.7 µM, 52.5 µM and 0.851 µM, respectively.

For `O=C(c1ccccc1)c1cc(Cl)ccc1N1C(=O)C=CC1=O`, the IC50 in test [1] (HIF-2a PANC, run 1) is 25.3 µM; in test [1] (HIF-2a PANC, run 2), over 99 µM; in test [1] (HIF-2a, mean of runs), 6.91 µM; in test [1] (HIF-2a, run 1), 7.05 µM; in test [1] (HIF-2a, run 2), 6.78 µM; in test [2] (mean of runs) it was 58.4 µM. For the same compound, the IC50 amounted to 55 µM in test [2] (run 1) and 61.7 µM in test [2] (run 2).

Take `CCOC(=O)Cn1cc(/C=C/[N+](=O)[O-])c2ccccc21`: the IC50 is > 99 µM (inactive) in test [1] (HIF-2a PANC, mean of runs); over 99 µM in test [1] (HIF-2a PANC, run 1); over 99 µM in test [1] (HIF-2a PANC, run 2); 13.5 µM in test [1] (HIF-2a, run 1); 13.2 µM in test [1] (HIF-2a, run 2); 17.7 µM in test [2] (run 1). Also, in test [2] (run 2), the half-maximal inhibitory concentration (IC50) came out at 25 µM. Besides, the IC50 result in test [1] (HIF-2a, mean of runs) was “inactive”; in test [2] (mean of runs), “inactive”.

For the compound `CCOC(=O)c1cccc(NC(=O)Nc2ccc(OCC)cc2)c1`, the concentration for half-maximal inhibition (IC50) in test [1] (HIF-2a PANC, run 1) is under 30 µM; in test [1] (HIF-2a PANC, run 2), 32.7 µM; in test [1] (HIF-2a, run 1), 11.2 µM; in test [1] (HIF-2a, run 2), under 10 µM; in test [2] (run 1), over 99 µM; in test [2] (run 2), over 99 µM.

As to `O=C(Nc1ccc(F)cc1)c1nc(S(=O)(=O)Cc2ccccc2)ncc1Cl`, the IC50 entry in test [1] (HIF-2a PANC, mean of runs) is “inactive”; in test [2] (mean of runs), “inactive”. For the same compound, the IC50 in test [1] (HIF-2a PANC, run 1) is 26.2 µM; in test [1] (HIF-2a PANC, run 2) it was 22 µM; in test [1] (HIF-2a, mean of runs), 7.59 µM; in test [1] (HIF-2a, run 1), 7.71 µM; in test [1] (HIF-2a, run 2), 7.47 µM; in test [2] (run 1) it was 14.6 µM. The compound further showed an IC50 in test [2] (run 2) of 16.7 µM.

In the case of `Cc1ccoc1C(=O)Nc1ccc(CC(=O)O)cc1`, the IC50 in test [1] (HIF-2a PANC, mean of runs) was 0.796 µM; in test [1] (HIF-2a PANC, run 1) it was 0.895 µM; in test [1] (HIF-2a PANC, run 2), 0.698 µM; in test [1] (HIF-2a, mean of runs), 0.374 µM; in test [1] (HIF-2a, run 1), 0.366 µM; in test [1] (HIF-2a, run 2), 0.382 µM. In addition, the IC50 in test [2] (run 1) and in test [2] (run 2) was over 99 µM throughout.

With `O=C(Nc1ccc(Cl)cc1Cl)c1cccc(N2C(=O)C=CC2=O)c1`, the half-maximal inhibitory concentration (IC50) in test [1] (HIF-2a PANC, run 1) is over 99 µM; in test [1] (HIF-2a PANC, run 2), 28.1 µM; in test [1] (HIF-2a, mean of runs), 8.1 µM; in test [1] (HIF-2a, run 1), 7.79 µM; in test [1] (HIF-2a, run 2), 8.42 µM; in test [2] (mean of runs), 41.1 µM. Besides, the IC50 in test [2] (run 1) stood at 47.8 µM; in test [2] (run 2) it was 34.5 µM.

These data come from PubChem BioAssay AID651581 (Sanford-Burnham Center for Chemical Genomics, 2012).
